# Experiments:
# P-gp [1] = experiment: P-gp expression in HCT8 cell monolayers, Western blot; format: cell-based, human
# Protocol: FIG. 5A-B. SipA-AuNPs decrease the expression of P-gp at a SipA dose nearly 500 times lower than free SipA. (FIG. 5A) Schematic presentation of P-gp knockdown mechanism via SipA-AuNP. (FIG. 5B) HCT8 cell monolayers were left untreated (−), exposed to […] 160 μg/ml of purified SipA, AuNP alone or AuNP-SipA (0.72 μg/ml of SipA).
# (§1) Cell culture. The human intestinal adenocarcinoma cell line HCT8 were maintained in accordance with (8). The human breast adenocarcinoma cell line MCF-7, the human bladder transitional cell carcinoma cell line UM-UC-3, and the CT26 murine colon carcinoma cell line, were purchased from ATCC and were all maintained in DMEM F-12 containing a 10% fetal bovine serum, 100 U/ml penicillin, and 10 μg/ml streptomycin at 37° C. in 90% relative humidity and 5% CO2.
# (§2) Cell lysates and Western Blot analysis. Cell lysates were harvested from S. Typhimurium-infected HCT8 cells, as previously described (8). Proteins were normalized to 30 μg, separated by SDS/PAGE (4-12% gradient; Biorad, Hercules, Calif.), and transferred to nitrocellulose (Bio-Rad; 0.45μ membrane). Immuno-blots were performed using the murine monoclonal P-gp C219 antibody (calbiochem) diluted at 1:100. […]
# P-gp [2] = experiment: P-gp expression in MCF-7 breast adenocarcinoma cells, Western blot; format: cell-based, human; details: MCF-7 cells, 80 or 160 μg/ml purified SipA, 3 h, compared to buffer control
# Protocol: (§3) FIG. 3A-B. SipA-induced, dose-dependent P-gp down-regulation is conserved in other cancer cell types. (FIG. 3A) MCF-7 breast adenocarcinoma cells were left untreated (−) or exposed to 80 μg/ml or 160 μg/ml of purified SipA for 3 h. Normalized whole cell lysates were then probed for P-gp and GAPDH. Densitometry was analyzed by ImageJ and presented as relative to the untreated cells. (FIG. 3B) UM-UC-3 human bladder carcinoma cells were left untreated or exposed to 80 μg/ml or 160 μg/ml of purified SipA for 3 h, and then probed and analyzed as in (FIG. 3A).
# as §1
# as §2, with “membrane).” for “membrane). Immuno-blots were performed using the murine monoclonal P-gp C219 antibody (calbiochem) diluted at 1:100.”
# P-gp [3] = experiment: P-gp expression in UM-UC-3 bladder carcinoma cells, Western blot; format: cell-based, human; details: UM-UC-3 cells, 80 or 160 μg/ml purified SipA, 3 h
# Protocol: as §3, §1
# as §2, with “membrane).” for “membrane). Immuno-blots were performed using the murine monoclonal P-gp C219 antibody (calbiochem) diluted at 1:100.”
# PERP [4] = target: T1, PERP (Homo sapiens, UniProt Q96FX8); experiment: Split-ubiquitin yeast-two hybrid analysis with full length SipA as bait; format: binding; details: human cancer colon mRNA-based library as prey; epithelial surfaces
# T1 construct: host or cells: yeast (split-ubiquitin two-hybrid system)
# T1 sequence (Q96FX8 whole entry): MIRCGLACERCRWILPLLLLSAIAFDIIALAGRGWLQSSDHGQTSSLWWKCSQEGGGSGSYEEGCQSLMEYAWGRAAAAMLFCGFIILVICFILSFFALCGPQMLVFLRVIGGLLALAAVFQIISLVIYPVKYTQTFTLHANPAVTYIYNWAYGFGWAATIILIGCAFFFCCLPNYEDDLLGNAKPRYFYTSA
# From the text: (§4) In a further embodiment, SipA increases the level of expression of PERP in cells, PERP is a tetraspan membrane protein originally identified as a transcriptional target of the p53 tumor suppressor (10). P53 regulates the cell cycle and, thus, functions as a tumor suppressor that is involved in preventing cancer. As such, p53 has been described as “the guardian of the genome”, referring to its role in conserving stability by preventing genome mutation. Fundamental to the tumor-suppressor role of p53 is the ability to engage in apoptosis. […] Studies investigating the interaction of SipA with the surface epithelial cells have been carried out (13, 14). The inventors used a split-ubiquitin based yeast-two hybrid analysis system (Dualsystems Biotech) with full length SipA as bait and a human cancer colon mRNA-based library as prey, to identify PERP, a p53 induced apoptotic effector, as a SipA interacting partner. […] While an understanding of the mechanism is not necessary, and without limiting the invention to any particular mechanism, and although the precise function of PERP in eliciting an apoptotic response remains unknown, initial reports indicate that PERP expression causes nuclear localization of p53 and increases the level of transcriptionally active p53 protein. […] Including increased protein stability, postranslational modifications, and enhanced nuclear accumulation. […]
# PERP [5] = experiment: PERP protein expression in human colonic cancers in vitro; format: cell-based
# From the text: as §4
# P-gp [6] = experiment: Colonic P-gp expression in mice colonized with S. Typhimurium strains; format: in vivo, Balb/c mice; details: SipA over-expressing strain (AJK63) vs isogenic SipA mutant strain (EE633), proximal colon, 48 hours
# From the text: FIG. 6A-D. The combined effects of SipA-AuNPs and exogenous doxorubicin prevent tumor growth. (FIG. 6A) Balb/c mice bearing subcutaneous CT26 tumors (mean tumor volumes of approximately 0.5 mm^3) received IP treatments for 15 days as described in the Materials and Methods section, (▪) Untreated, (●) AuNP alone, (▴A) SipA-AuNPs, (♦) Doxorubicin or (□) SipA-AuNP plus Doxorubicin (DOX). SipA-AuNPs conjugates improve the efficacy of doxorubicin. (*P<0.0001). (FIG. 6B) Accumulation of gold nanoparticles in the tumors shown in (FIG. 6A) was evaluated by SEM and X-ray microanalysis. Color intensity represents tumor penetration. The sections of tumor were imaged for X-ray analysis and X-ray mapping as described in the Materials and Methods section. (FIG. 6C) P-gp expression in the tumors shown in (FIG. 6A) was evaluated by western blot. Tumors were homogenized and lysed. […] Levels of P-gp were quantified by densitometry and presented on the bar cart. […] Levels of P-gp were quantified by densitometry and presented on the bar graph. […]
# Since normal healthy intestinal epithelium display baseline expression of P-gp, the inventors evaluated the colonic expression of P-gp in mice colonized with a S. Typhimurium strain that over-expresses SipA (AJK63) compared to mice colonized with an equivalent amount of an isogenic SipA mutant strain (EE633). […]
# CT26 tumors = experiment: Subcutaneous CT26 murine colon cancer model, tumor volume; format: in vivo, Balb/c mice; details: doxorubicin alone, 10 mg/kg
# From the text: FIG. 6A-D. The combined effects of SipA-AuNPs and exogenous doxorubicin prevent tumor growth. (FIG. 6A) Balb/c mice bearing subcutaneous CT26 tumors (mean tumor volumes of approximately 0.5 mm^3) received IP treatments for 15 days as described in the Materials and Methods section, (▪) Untreated, (●) AuNP alone, (▴A) SipA-AuNPs, (♦) Doxorubicin or (□) SipA-AuNP plus Doxorubicin (DOX). SipA-AuNPs conjugates improve the efficacy of doxorubicin. (*P<0.0001). (FIG. 6B) Accumulation of gold nanoparticles in the tumors shown in (FIG. 6A) was evaluated by SEM and X-ray microanalysis. Color intensity represents tumor penetration. The sections of tumor were imaged for X-ray analysis and X-ray mapping as described in the Materials and Methods section. (FIG. 6C) P-gp expression in the tumors shown in (FIG. 6A) was evaluated by western blot. Tumors were homogenized and lysed. Whole cell lysates were normalized for protein levels and probed for P-gp. Levels of P-gp were quantified by densitometry and presented on the bar cart. Densitometry was performed using ImageJ and results are presented as relative to the untreated cells. […] Levels of P-gp were quantified by densitometry and presented on the bar graph. […]
# The subcutaneous tumor model. […] Tumor size was measured using calipers and volumes were estimated using the formula 0.5×length×(width)^2. […]
# Chain of P-gp (P08183 whole entry): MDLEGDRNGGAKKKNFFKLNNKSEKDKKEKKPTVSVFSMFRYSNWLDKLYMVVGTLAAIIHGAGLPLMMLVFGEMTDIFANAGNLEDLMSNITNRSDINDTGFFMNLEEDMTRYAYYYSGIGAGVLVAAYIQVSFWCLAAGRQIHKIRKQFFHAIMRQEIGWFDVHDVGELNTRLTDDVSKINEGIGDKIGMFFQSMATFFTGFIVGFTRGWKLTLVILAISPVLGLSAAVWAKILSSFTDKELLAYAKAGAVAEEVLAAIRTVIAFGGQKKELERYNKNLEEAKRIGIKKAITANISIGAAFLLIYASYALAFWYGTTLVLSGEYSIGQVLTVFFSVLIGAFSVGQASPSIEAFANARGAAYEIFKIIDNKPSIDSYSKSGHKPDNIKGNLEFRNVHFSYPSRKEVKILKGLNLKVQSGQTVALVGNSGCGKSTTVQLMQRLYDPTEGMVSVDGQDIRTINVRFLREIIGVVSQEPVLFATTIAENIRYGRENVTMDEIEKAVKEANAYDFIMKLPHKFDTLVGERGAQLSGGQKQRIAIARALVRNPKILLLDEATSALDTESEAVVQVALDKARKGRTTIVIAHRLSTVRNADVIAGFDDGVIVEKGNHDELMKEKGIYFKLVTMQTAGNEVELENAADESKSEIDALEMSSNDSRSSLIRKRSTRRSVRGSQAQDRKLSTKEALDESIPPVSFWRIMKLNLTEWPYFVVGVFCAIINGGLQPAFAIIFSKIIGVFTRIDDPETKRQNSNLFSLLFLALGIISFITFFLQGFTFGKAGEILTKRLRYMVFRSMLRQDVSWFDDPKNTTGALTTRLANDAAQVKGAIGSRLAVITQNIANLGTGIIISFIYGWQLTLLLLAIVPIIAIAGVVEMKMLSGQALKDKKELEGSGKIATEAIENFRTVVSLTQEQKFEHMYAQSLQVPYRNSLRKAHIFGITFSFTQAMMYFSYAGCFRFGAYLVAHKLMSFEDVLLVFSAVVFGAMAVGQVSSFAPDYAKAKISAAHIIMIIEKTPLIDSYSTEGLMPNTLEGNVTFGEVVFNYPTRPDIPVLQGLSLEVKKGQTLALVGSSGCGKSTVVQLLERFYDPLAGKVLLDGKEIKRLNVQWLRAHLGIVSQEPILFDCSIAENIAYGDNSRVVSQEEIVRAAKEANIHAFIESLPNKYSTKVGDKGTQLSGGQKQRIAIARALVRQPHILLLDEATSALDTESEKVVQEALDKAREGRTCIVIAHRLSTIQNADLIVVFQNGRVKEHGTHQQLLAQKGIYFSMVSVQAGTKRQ
compound,measurement,setting,value
lipopolysaccharide [reference compound],modulation of P-gp by lipopolysaccharide,"P-gp [1]; HCT8, purified LPS from S. typhimurium 0.1 to 100 μg/ml, 3 h",not attributed to trace amounts of lipopolysaccharide
"SipA: Salmonella Typhimurium type III secreted effector protein, SEQ ID NO:01; purified as SipA-HA fusion protein",modulation of P-gp expression,"P-gp [1]; HCT8 monolayers, 80 μg/ml or 160 μg/ml purified SipA-HA, 3 hours",dose dependent ability to modulate P-gp to the same degree as wild-type S. Typhimurium
same,reduction of P-gp expression,P-gp [2],40%
same,reduction of P-gp expression,P-gp [3],95%
same,interaction with PERP,PERP [4],bind to PERP at epithelial surfaces
same,PERP protein expression,PERP [5],up-regulates the protein expression of PERP
same,expression of P-gp in healthy murine intestinal epithelium,P-gp [6],could modulate the expression of P-gp in healthy murine intestinal epithelium in vivo
COc1cccc2c1C(=O)c1c(O)c3c(c(O)c1C2=O)C[C@@](O)(C(=O)CO)C[C@@H]3O[C@H]1C[C@H](N)[C@H](O)[C@H](C)O1 [doxorubicin],effect on tumor size,CT26 tumors,minimal effect on tumor size

# Reference: patent US10835575B2, “Compositions and methods for treating disease using Salmonella T3SS effector protein (SipA)” (University of Massachusetts, priority 2013, dated 2020)
